We go through eight compounds from patent EP2487157A1, “Enantioselective synthesis method of 4-aminoalcoholquinoline derivatives and the use” (Université de Picardie Jules Verne, priority 2011, dated 2012).

Test [1] deals with Plasmodium falciparum chloroquine resistant (W2). Kind of test: Antimalarial test, tritiated hypoxanthine incorporation, chloroquine resistant clone W2. It is filed as cell-based. The note with it: read-out: 50% inhibitory concentration followed by uncertainty about the value expressed in percentage. How it is done:
(§1) Screenings of the compound according to the present invention (1f, 1h, 1i) and their isomers (1a, 1c, 1d)on strains of Plasmodium falciparum sensitive (3D7) and chloroquine resistant (W2) were realized.
(§2) The Clones of W2 and 3D7 were grown. […] Melfloquine (MQ) at the same concentrations and chloroquine (CQ) at the concentrations adapted to each clone were used as the Controls. 8 negative controls were distributed on each plate.
(§3) Then, the molecules to be tested were diluted extemporaneously in the above preparation of the plates. The growth medium was deposited after drying plates. The study was initiated when the growth medium was at the ring stage and then stopped after 1 parasitic cycle (45h).
(§4) The activity was calculated by using the Pk-Fit software on all the experimental points obtained for each molecule (except the highest concentration). The results shown in table 5 are expressed in nM and correspond to calculate a 50% inhibitory concentration followed by un certainty about the value expressed in percentage. Table 5. The biological effect of the compounds on Plasmodium falciparum

Test [2] deals with Plasmodium falciparum sensitive (3D7). Kind of test: Antimalarial test, tritiated hypoxanthine incorporation, sensitive clone 3D7. It is filed as cell-based. The note with it: read-out: 50% inhibitory concentration followed by uncertainty about the value expressed in percentage. On the procedure: as §1, §2, §3, §4
The subject of another test is E. coli DSM 1103. Kind of test: Antibacterial test, MIC by CLSI broth dilution. It is filed as cell-based. The note with it: 18 to 24 h at 37°C, Mueller-Hinton. How it is done:
(§5) The minimum inhibitory concentrations (MICs) were determined according to the recommendations of the Clinical and Laboratory Standards Institute (CLSI)^[27]. […] After incubation for 18 to 24 h (48 h for Enterococcus faecalis) at 37°C, the MIC was determined as the product concentration of the first well with no visual signs of bacterial growth (no disorder in the well). […] Table6. The antibacterial effects of the compounds
(In broth dilution the organism is exposed to a series of concentrations in liquid medium.)

The next test relates to P. aeruginosa DSM 1117. Kind of test: Antibacterial test, MIC by CLSI broth dilution. Format: cell-based. The note with it: 18 to 24 h at 37°C, Mueller-Hinton. On the procedure:
as §5

For the next test, the system named is S. aureus CIP 103429. Kind of test: Antibacterial test, MIC by CLSI broth dilution. The note with it: 18 to 24 h at 37°C, Mueller-Hinton. It is filed as cell-based. On the procedure: as §5
Another test relates to E. faecalis CIP 103214. Kind of test: Antibacterial test, MIC by CLSI broth dilution. It is filed as cell-based, Enterococcus faecalis. The note with it: 48 h at 37°C, Mueller-Hinton. On the procedure: as §5
The subject of the next test is SAAM 12. Kind of test: Antibacterial test, MIC by CLSI broth dilution. It is filed as cell-based, Staphylococcus aureus. The note with it: SAAM 12, clinical strain resistant to methicillin; 18 to 24 h at 37°C. On the procedure: as §5
For another test, the system named is SAAM 27. Kind of test: Antibacterial test, MIC by CLSI broth dilution. It is filed as cell-based, Staphylococcus aureus. The note with it: SAAM 27, clinical strain resistant to methicillin; 18 to 24 h at 37°C. How it is done:
as §5

The test system of another test is SAAM 51. Kind of test: Antibacterial test, MIC by CLSI broth dilution. It is filed as cell-based, Staphylococcus aureus. The note with it: SAAM 51, clinical strain resistant to methicillin; 18 to 24 h at 37°C. How it is done:
as §5

The test system of another test is SAAM 64. Kind of test: Antibacterial test, MIC by CLSI broth dilution. It is filed as cell-based, Staphylococcus aureus. The note with it: SAAM 64, clinical strain resistant to methicillin; 18 to 24 h at 37°C. How it is done:
as §5

The next test concerns SAAM 69. Kind of test: Antibacterial test, MIC by CLSI broth dilution. Format: cell-based, Staphylococcus aureus. The note with it: SAAM 69, clinical strain resistant to methicillin; 18 to 24 h at 37°C. On the procedure: as §5
For the next test, the system named is SAAM 86. Kind of test: Antibacterial test, MIC by CLSI broth dilution. It is filed as cell-based, Staphylococcus aureus. The note with it: SAAM 86, clinical strain resistant to methicillin; 18 to 24 h at 37°C. How it is done: as §5
A further test concerns SAAM 95. Kind of test: Antibacterial test, MIC by CLSI broth dilution. Format: cell-based, Staphylococcus aureus. The note with it: SAAM 95, clinical strain resistant to methicillin; 18 to 24 h at 37°C. How it is done: as §5
In a further test the test system is SAAM 98. Kind of test: Antibacterial test, MIC by CLSI broth dilution. It is filed as cell-based, Staphylococcus aureus. The note with it: SAAM 98, clinical strain resistant to methicillin; 18 to 24 h at 37°C. On the procedure:
as §5

[3] abbreviates: W2 clone, chloroquine resistant, 1 parasitic cycle (45h), bracket = uncertainty in %.
[4] abbreviates: 3D7 clone, sensitive, 1 parasitic cycle (45h), bracket = uncertainty in %.

In brackets after ≈: the same amount, converted by molar mass. Where two headings read alike, the source gives them in different places.

In the case of `O[C@H](c1cc(C(F)(F)F)nc2c(C(F)(F)F)cccc12)[C@@H]1CCCCN1` (relative stereo) [MQ, (±)-(R*,S*)-α-2-piperidinyl-2,8-bis(trifluoromethyl)-4-quinolinemethanol, reference compound], the IC50 in [1] (setting [3]) is 26.5 nM; in test [2] (setting [4]), 52.2 nM. The “minimum inhibitory concentrations (MICs)” value was 64 µg/mL (≈ 169 µM) with E. coli DSM 1103; greater than 128 µg/mL in the test with P. aeruginosa DSM 1117; 16 to 32 µg/mL in the test on S. aureus CIP 103429; 16 to 32 µg/mL in the test with E. faecalis CIP 103214; 16 µg/mL (≈ 42.3 µM) in the test on SAAM 12; 16 µg/mL (≈ 42.3 µM) in the test on SAAM 27. For the same compound, the “minimum inhibitory concentrations (MICs)” value in the test on SAAM 51 was 16 µg/mL (≈ 42.3 µM); with SAAM 64, 32 µg/mL (≈ 84.6 µM); in the test with SAAM 69, 16 µg/mL (≈ 42.3 µM); in the test with SAAM 86 it was 16 µg/mL (≈ 42.3 µM); in the test on SAAM 95 it was 16 µg/mL (≈ 42.3 µM); in the test on SAAM 98, 32 µg/mL (≈ 84.6 µM).
As to `CCN(CC)CCCC(C)Nc1ccnc2cc(Cl)ccc12` (stereo not shown) [CQ, chloroquine, reference compound], the IC50 was 572 nM in [1] (W2, 45 h) and 32.5 nM in test [2] (3D7, 45 h).
On to `O[C@@H](CNCc1ccccc1)c1cc(C(F)(F)F)nc2c(C(F)(F)F)cccc12` [Compound 1a, (R)-2-(benzylamino)-1-(2,8-bis(trifluoromethyl)quinolin-4-yl)ethanol], for which the IC50 amounted to 41.1 nM in test [1] (setting [3]) and 104 nM in [2] (setting [4]). Moreover, the “minimum inhibitory concentrations (MICs)” value was greater than 128 µg/mL in the test with E. coli DSM 1103; greater than 128 µg/mL in the test with P. aeruginosa DSM 1117; greater than 128 µg/mL in the test with S. aureus CIP 103429; greater than 128 µg/mL with E. faecalis CIP 103214; 4 µg/mL (≈ 9.65 µM) in the test with SAAM 12; 4 µg/mL (≈ 9.65 µM) in the test with SAAM 27. For the same compound, the “minimum inhibitory concentrations (MICs)” value in the test with SAAM 51 is 4 µg/mL (≈ 9.65 µM); with SAAM 64 it was greater than 128 µg/mL; in the test on SAAM 69, 8 µg/mL (≈ 19.3 µM); in the test on SAAM 86, 8 µg/mL (≈ 19.3 µM); in the test on SAAM 95, 4 µg/mL (≈ 9.65 µM); with SAAM 98, greater than 128 µg/mL.
Regarding `CCCCCNC[C@H](O)c1cc(C(F)(F)F)nc2c(C(F)(F)F)cccc12` [Compound 1c, (R)-1-(2,8-bis(trifluoromethyl)quinolin-4-yl)-2-(pentylamino)ethanol], the IC50 stood at 38.2 nM in test [1] (setting [3]) and 74.7 nM in test [2] (setting [4]). In addition, the “minimum inhibitory concentrations (MICs)” value was 32 µg/mL (≈ 81.1 µM) in the test with E. coli DSM 1103; greater than 128 µg/mL in the test with P. aeruginosa DSM 1117; 16 to 32 µg/mL in the test on S. aureus CIP 103429; 16 to 32 µg/mL with E. faecalis CIP 103214; 8 µg/mL (≈ 20.3 µM) with SAAM 12; 8 µg/mL (≈ 20.3 µM) in the test on SAAM 27. Moreover, the “minimum inhibitory concentrations (MICs)” value was found to be 8 µg/mL (≈ 20.3 µM) in the test on SAAM 51; 16 µg/mL (≈ 40.6 µM) in the test with SAAM 64; 8 µg/mL (≈ 20.3 µM) in the test with SAAM 69; 16 µg/mL (≈ 40.6 µM) with SAAM 86; 8 µg/mL (≈ 20.3 µM) in the test with SAAM 95; 16 µg/mL (≈ 40.6 µM) with SAAM 98.
With `CCCCCCNC[C@H](O)c1cc(C(F)(F)F)nc2c(C(F)(F)F)cccc12` [Compound 1d, (R)-1-(2,8-bis(trifluoromethyl)quinolin-4-yl)-2-(hexylamino)ethanol], the IC50 in [1] (setting [3]) worked out at 142 nM; in test [2] (setting [4]) it was 205 nM. For the same compound, the “minimum inhibitory concentrations (MICs)” value with E. coli DSM 1103 is 16 µg/mL (≈ 39.2 µM); in the test on P. aeruginosa DSM 1117, greater than 128 µg/mL; in the test on S. aureus CIP 103429 it was 4 to 8 µg/mL; with E. faecalis CIP 103214, 4 to 8 µg/mL; with SAAM 12, 4 µg/mL (≈ 9.79 µM); with SAAM 27, 4 µg/mL (≈ 9.79 µM). Besides, the “minimum inhibitory concentrations (MICs)” value in the test on SAAM 51, in the test on SAAM 64, with SAAM 69, in the test with SAAM 86, in the test with SAAM 95 and with SAAM 98 was 4 µg/mL (≈ 9.79 µM) each time.
Take `O[C@H](CNCc1ccccc1)c1cc(C(F)(F)F)nc2c(C(F)(F)F)cccc12` [Compound 1f, (S)-2-(benzylamino)-1-(2,8-bis(trifluoromethyl)quinolin-4-yl)ethanol]: the values for the IC50 in test [1] (setting [3]) and in test [2] (setting [4]) were 19.1 nM and 35.1 nM, respectively. Also, the “minimum inhibitory concentrations (MICs)” value in the test with E. coli DSM 1103 is greater than 128 µg/mL; with P. aeruginosa DSM 1117, greater than 128 µg/mL; in the test with S. aureus CIP 103429 it was 4 to 8 µg/mL; in the test with E. faecalis CIP 103214, 8 µg/mL (≈ 19.3 µM); with SAAM 12 it was 4 µg/mL (≈ 9.65 µM); in the test on SAAM 27 it was 4 µg/mL (≈ 9.65 µM). In addition, the “minimum inhibitory concentrations (MICs)” value in the test on SAAM 51 is given as 4 µg/mL (≈ 9.65 µM); in the test with SAAM 64, greater than 128 µg/mL; with SAAM 69, 8 µg/mL (≈ 19.3 µM); in the test on SAAM 86 it was 8 µg/mL (≈ 19.3 µM); in the test on SAAM 95, 4 µg/mL (≈ 9.65 µM); in the test on SAAM 98, 8 µg/mL (≈ 19.3 µM).
Regarding `CCCCCNC[C@@H](O)c1cc(C(F)(F)F)nc2c(C(F)(F)F)cccc12` [Compound 1h, (S)-1-(2,8-bis(trifluoromethyl)quinolin-4-yl)-2-(pentylamino)ethanol], the IC50 in test [1] (setting [3]) worked out at 6.98 nM; in [2] (setting [4]), 8.33 nM. Besides, the “minimum inhibitory concentrations (MICs)” value with E. coli DSM 1103 is 16 µg/mL (≈ 40.6 µM); with P. aeruginosa DSM 1117, greater than 128 µg/mL; in the test with S. aureus CIP 103429, 16 to 32 µg/mL; in the test on E. faecalis CIP 103214 it was 16 to 32 µg/mL; with SAAM 12, 8 µg/mL (≈ 20.3 µM); in the test with SAAM 27, 8 µg/mL (≈ 20.3 µM). Further, the “minimum inhibitory concentrations (MICs)” value in the test on SAAM 51 is 8 µg/mL (≈ 20.3 µM); in the test on SAAM 64 it was 16 µg/mL (≈ 40.6 µM); with SAAM 69, 8 µg/mL (≈ 20.3 µM); with SAAM 86, 16 µg/mL (≈ 40.6 µM); in the test on SAAM 95 it was 8 µg/mL (≈ 20.3 µM); in the test on SAAM 98 it was 16 µg/mL (≈ 40.6 µM).
With `CCCCCCNC[C@@H](O)c1cc(C(F)(F)F)nc2c(C(F)(F)F)cccc12` [Compound 1i, (S)-1-(2,8-bis(trifluoromethyl)quinolin-4-yl)-2-(hexylamino)ethanol], the IC50 in test [1] (setting [3]) worked out at 9.4 nM; in [2] (setting [4]), 14.5 nM. For the same compound, the “minimum inhibitory concentrations (MICs)” value with E. coli DSM 1103 was greater than 128 µg/mL; in the test on P. aeruginosa DSM 1117, greater than 128 µg/mL; in the test on S. aureus CIP 103429, 4 to 8 µg/mL; in the test with E. faecalis CIP 103214, 4 to 8 µg/mL; in the test on SAAM 12, 2 µg/mL (≈ 4.9 µM); in the test on SAAM 27, 2 µg/mL (≈ 4.9 µM). The “minimum inhibitory concentrations (MICs)” value with SAAM 51 was 2 µg/mL (≈ 4.9 µM); in the test with SAAM 64, 4 µg/mL (≈ 9.79 µM); in the test with SAAM 69, 4 µg/mL (≈ 9.79 µM); in the test with SAAM 86, 8 µg/mL (≈ 19.6 µM); in the test with SAAM 95, 2 µg/mL (≈ 4.9 µM); in the test with SAAM 98, 8 µg/mL (≈ 19.6 µM).
